Reference: patent US20230123334A1, “AMINO LIPID COMPOUND, PREPARATION METHOD THEREFOR, AND APPLICATION THEREOF” (SHENZHEN SHENXIN BIOTECHNOLOGY CO., LTD., priority 2020, published 2023)

Key:
[1] = system: HEK293 cells; assay: Preliminary screening as DNA vectors, GFP transfection of HEK293 cells; assay type: cell-based; settings: HEK293 cells; lipid/DOPE liposome with 75 ng plasmid DNA (psin-EGFP-IRES-Puro); number of cells expressing GFP divided by total number of nuclei (Hoechst)
In short: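 HEK293 cells in DMEM/10% FBS transfected with 75 ng EGFP plasmid per well complexed with amino lipid/DOPE liposomes in pH 5.6 sodium acetate. Hoechst nuclear stain added 20-24 h post-transfection, then cells cultured another 20-24 h. Confocal imaging gives GFP-positive cells as % of total nuclei.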

[2] = system: HEK293 cells; assay: Preliminary screening as mRNA vectors, EGFP mRNA transfection of HEK293 cells; assay type: cell-based; settings: HEK293 cells, 96-well plates, EGFP mRNA 50 ng per well; percentage of GFP fluorescent cells relative to total number of cells (Hoechst)
In short: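 HEK293 cells in DMEM plus 10% FBS transfected in 96-well format with 50 ng EGFP mRNA per well; Lipofectamine2000 served as positive control. Read-out is the percentage of GFP-fluorescent cells among total cells, counted by Hoechst nuclear stain.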

CCCCCCCCCCCCCCCCCCSc1nc(NCCN2CCN(C)CC2)nc(SCCCCCCCCCCCCCCCCCC)n1 [Compound S18S18D5]
Absolute DNA transfection efficiency in HEK293 cells [1]: 0.1% | Absolute mRNA transfection efficiency in HEK293 cells [2]: 0.1%

CCCCCCCCCCCNc1nc(NCCCCCCCC)nc(NCCN(CC)CC)n1 [Compound N8N11D7]
Absolute DNA transfection efficiency in HEK293 cells [1]: 0.0% | Absolute mRNA transfection efficiency in HEK293 cells [2]: 0.0%

CCCCCCCCCCCCCCCCSc1nc(NCCN(C)C)nc(SCCCCCCCCCC)n1 [Compound S10S16D1]
Absolute DNA transfection efficiency in HEK293 cells [1]: 7.2% | Absolute mRNA transfection efficiency in HEK293 cells [2]: 0.1%

CCCCCCCCCCCCCCCCCCSc1nc(NCCCN2CCOCC2)nc(SCCCCCCCCCCCC)n1 [Compound S12S18D8]
Absolute DNA transfection efficiency in HEK293 cells [1]: 0.4% | Absolute mRNA transfection efficiency in HEK293 cells [2]: 0.0%

CCCCCCCCCCCCCCCCNc1nc(NCCCCCCCCCCCCCCCC)nc(NCCN(CC)CC)n1 [Compound N16N16D7]
Absolute DNA transfection efficiency in HEK293 cells [1]: 0.0% | Absolute mRNA transfection efficiency in HEK293 cells [2]: 7.9%

CCCCCCCCCCCCSc1nc(NCCN(C)C)nc(SCCCCCCCCCCCC)n1 [Compound S12S12D1]
Absolute DNA transfection efficiency in HEK293 cells [1]: 0.5% | Absolute mRNA transfection efficiency in HEK293 cells [2]: 0.6%

CCCCCCCCCCCCCCCCSc1nc(NCCN(CC)CC)nc(SCCCCCCCCCCCCCCCC)n1 [Compound S16S16D7]
Absolute DNA transfection efficiency in HEK293 cells [1]: 0.5% | Absolute mRNA transfection efficiency in HEK293 cells [2]: 0.0%

CCCCCCCCCCCCCCSc1nc(NCCN(C)C)nc(SCCCCCCCCCCCC)n1 [Compound S12S14D1]
Absolute DNA transfection efficiency in HEK293 cells [1]: 0.6% | Absolute mRNA transfection efficiency in HEK293 cells [2]: 0.0%

CCCCCCCCCCCCCCCNc1nc(NCCCCCCCCC)nc(NCCN2CCCC2)n1 [Compound N9N15D3]
Absolute DNA transfection efficiency in HEK293 cells [1]: 0.5% | Absolute mRNA transfection efficiency in HEK293 cells [2]: 4.7%

CCCCCCCCCCCCSc1nc(NCCN2CCCCC2)nc(SCCCCCCCCCC)n1 [Compound S10S12D4]
Absolute DNA transfection efficiency in HEK293 cells [1]: 12.0% | Absolute mRNA transfection efficiency in HEK293 cells [2]: 3.4%

CCCCCCCCCCSc1nc(NCCN2CCCC2)nc(SCCCCCCCCC)n1 [Compound S9S10D3]
Absolute DNA transfection efficiency in HEK293 cells [1]: 10.3% | Absolute mRNA transfection efficiency in HEK293 cells [2]: 70.1%

CCCCCCCCCCCCNc1nc(NCCCCCCC)nc(NCCN2CCCC2)n1 [Compound N7N12D3]
Absolute DNA transfection efficiency in HEK293 cells [1]: 3.5% | Absolute mRNA transfection efficiency in HEK293 cells [2]: 6.3%

CCCCCCCCCCCCCCCCSc1nc(NCCCN2CCOCC2)nc(SCCCCCCCCCCCCCCCC)n1 [Compound S16S16D8]
Absolute DNA transfection efficiency in HEK293 cells [1]: 0.0% | Absolute mRNA transfection efficiency in HEK293 cells [2]: 1.7%

CCCCCCCCNc1nc(NCCCCCC)nc(NCCN(C)C)n1 [Compound N6N8D1]
Absolute DNA transfection efficiency in HEK293 cells [1]: 0.0% | Absolute mRNA transfection efficiency in HEK293 cells [2]: 0.0%

CCCCCCCCCCCCCCCCSc1nc(NCCN(C)C)nc(SCCCCCCCCCCCCCCC)n1 [Compound S15S16D1]
Absolute DNA transfection efficiency in HEK293 cells [1]: 1.7% | Absolute mRNA transfection efficiency in HEK293 cells [2]: 0.7%

CCCCCCCCCCCCNc1nc(NCCN2CCN(C)CC2)nc(N(CCCCCCCCCCCC)CCCCCCCCCCCC)n1 [N12^2N12D5]
Absolute DNA transfection efficiency in HEK293 cells [1]: 0.5% | Absolute mRNA transfection efficiency in HEK293 cells [2]: 2.2%

CCCCCCCCCCCCCCCCNc1nc(NCCCCCC)nc(NCCN(C)C)n1 [Compound N6N16D1]
Absolute DNA transfection efficiency in HEK293 cells [1]: 0.4% | Absolute mRNA transfection efficiency in HEK293 cells [2]: 0.0%

CCCCCCCCCCCCCCCCNc1nc(NCCCCCCCCCCCCCCCC)nc(NCCCN(C)C)n1 [Compound N16N16D6]
Absolute DNA transfection efficiency in HEK293 cells [1]: 0.9% | Absolute mRNA transfection efficiency in HEK293 cells [2]: 0.0%

CCCCCCCCCCCCCCCCCCSc1nc(NCCN(C)C)nc(SCCCCCCCCC)n1 [Compound S9S18D1]
Absolute DNA transfection efficiency in HEK293 cells [1]: 4.9% | Absolute mRNA transfection efficiency in HEK293 cells [2]: 2.7%

CCCCCCCCCCCCCCCCSc1nc(NCCN(C)C)nc(SCCCCCCCCCCCCCC)n1 [Compound S14S16D1]
Absolute DNA transfection efficiency in HEK293 cells [1]: 0.0% | Absolute mRNA transfection efficiency in HEK293 cells [2]: 0.0%

CCCCCCCCCCCCCCCNc1nc(NCCCCCCCCCCC)nc(NCCN2CCCCC2)n1 [Compound N11N15D4]
Absolute DNA transfection efficiency in HEK293 cells [1]: 0.9% | Absolute mRNA transfection efficiency in HEK293 cells [2]: 2.8%

CCCCCCCCCCCCCCCCCCSc1nc(NCCN2CCCC2)nc(SCCCCCCCCCCCC)n1 [Compound S12S18D3]
Absolute DNA transfection efficiency in HEK293 cells [1]: 2.1% | Absolute mRNA transfection efficiency in HEK293 cells [2]: 0.2%

CCCCCCCCCCCCCCCCCCSc1nc(NCCN2CCCC2)nc(SCCCCCCCCCCCCCC)n1 [Compound S14S18D3]
Absolute DNA transfection efficiency in HEK293 cells [1]: 2.8% | Absolute mRNA transfection efficiency in HEK293 cells [2]: 0.1%

CCCCCCCCCSc1nc(NCCCN2CCN(C)CC2)nc(SCCCCCCCCC)n1 [Compound S9S9D9]
Absolute DNA transfection efficiency in HEK293 cells [1]: 19.3% | Absolute mRNA transfection efficiency in HEK293 cells [2]: 19.3%
